Experimental data as given in patent US4675400A, “Bifunctional derivatives of 4-desacetyl indole-dihydroindole alkaloids” (Eli Lilly and Company, priority 1985, dated 1987).
Converted amounts (≈) assume the structure as drawn. Counter-ions that a name gives are not always drawn.

Key:
[1] = pKa (66% DMF); assay type: physicochemical
[2] = tested on: 6C3HED lymphosarcoma; test: activity against transplanted tumor 6C3HED lymphosarcoma in mice; assay type: in vivo; conditions: intravenous, day one
Protocol: Certain of the above compounds have also shown activity against a transplanted tumor, 6C3HED lymphosarcoma, in mice. Information as to this activity is summarized in Table 2 in which column 1 gives the name of the compound, column 2, the dose level in mg./kg. and column 3 the percent tumor inhabitation. All compounds were administered on day one by the intravenous route.

[3] = tested on: human leukemic cells (CCRF-CEM cell line); test: C.C.R.F.-C.E.M. Cytotoxicity Assay, growth inhibition of human leukemic cells; assay type: cell-based; conditions: read-out: IC50 (concentration giving 50% growth inhibition)
Source text: In the Table, column 1 gives the name of the compound and column 2, the IC50 (concentration giving 50% growth inhibition) in mcg/ml.

[4] = tested on: growing tumor cells; test: metaphase arrest, block of growing tumor cells in mitosis; assay type: cell-based; conditions: standard procedures; read-out: concentration at which compound blocked growing tumor cells in mitosis (metaphase arrest)
Protocol: The compounds of this invention in which Z is OH, NH2, NHNH2, or O--C1-3 alkyl have utility as anti-tumor compounds acti transplanted tumors in mice, as mitotic inhibitors and as cytotoxic agents. As evidence of such utility, the ability of N^2 -succinoyl 4-desacetyl VLB 3-carboxhydrazide methyl ester sulfate to cause metaphase arrest was measured by standard procedures.

[5] = tested on: vincristine-resistant leukemias; conditions: marketed oncolytic agent; cited from earlier work

CC[C@]1(O)C[C@@H]2CN(CCc3c([nH]c4ccccc34)[C@@](C(=O)OC)(c3cc4c(cc3OC)N(C)[C@H]3[C@@](O)(C(=O)NNC(=O)CCC(=O)O)[C@H](O)[C@]5(CC)C=CCN6CC[C@]43[C@@H]65)C2)C1 [Example 1, N^2 -Succinoyl-4-desacetyl VLB 3-carboxhydrazide]
pKa [1]: 5.1

CC[C@]1(O)C[C@@H]2CN(CCc3c([nH]c4ccccc34)[C@@](C(=O)OC)(c3cc4c(cc3OC)N(C)[C@H]3[C@@](O)(C(=O)NNC(=O)CCCC(=O)O)[C@H](O)[C@]5(CC)C=CCN6CC[C@]43[C@@H]65)C2)C1 [Example 8, N^2 -Glutaroyl 4-desacetyl VLB 3-carboxhydrazide]
pKa [1]: 4.8

CC[C@]1(O)C[C@@H]2CN(CCc3c([nH]c4ccccc34)[C@@](C(=O)OC)(c3cc4c(cc3OC)N(C)[C@H]3[C@@](O)(C(=O)NNC(=O)CCC(=O)O)[C@H](O)[C@]5(CC)C=CCN6CC[C@]43[C@@H]65)C2)C1 [N^2 --Succinoyl 4-desacetyl VLB 3-carboxhydrazide sulfate]
% Tumor Inhibition ([2]; 0.625 mg/kg): 13%
% Tumor Inhibition ([2]; 1.25 mg/kg): 5%
% Tumor Inhibition ([2]; 2.5 mg/kg): 5%
% Tumor Inhibition ([2]; 5 mg/kg): 33%
% Tumor Inhibition ([2]; 10 mg/kg): 77%
% Tumor Inhibition ([2]; 20 mg/kg): 100%
% Tumor Inhibition ([2]; 40 mg/kg): 100%

CC[C@]1(O)C[C@@H]2CN(CCc3c([nH]c4ccccc34)[C@@](C(=O)OC)(c3cc4c(cc3OC)N(C)[C@H]3[C@@](O)(C(=O)NNC(=O)CCCCC(=O)OC)[C@H](O)[C@]5(CC)C=CCN6CC[C@]43[C@@H]65)C2)C1 [N^2-adipoyl-4-desacetyl VLB 3-carboxyhydrazide methylester]
IC50 [3]: 0.4 µg/mL (≈ 0.439 µM)

CC[C@]1(O)C[C@@H]2CN(CCc3c([nH]c4ccccc34)[C@@](C(=O)OC)(c3cc4c(cc3OC)N(C)[C@H]3[C@@](O)(C(=O)NNC(=O)CCCC(=O)O)[C@H](O)[C@]5(CC)C=CCN6CC[C@]43[C@@H]65)C2)C1 [N^2-glutaroyl 4-desacetyl VLB 3-carboxhydrazide sulfate]
IC50 [3]: 0.1 µg/mL

CC[C@]1(O)C[C@@H]2CN(CCc3c([nH]c4ccccc34)[C@@](C(=O)OC)(c3cc4c(cc3OC)N(C)[C@H]3[C@@](O)(C(=O)NNC(=O)CCC(=O)OC)[C@H](O)[C@]5(CC)C=CCN6CC[C@]43[C@@H]65)C2)C1 [N^2-succinoyl 4-desacetyl VLB 3-carboxhydrazide methyl ester]
minimal effective concentration [4]: 0.2 µg/mL
% Tumor Inhibition ([2]; 1 mg/kg): 100%
% Tumor Inhibition (toxic dose) ([2]; 2 mg/kg): Toxic
% Tumor Inhibition (toxic dose) ([2]; 4 mg/kg): Toxic
% Tumor Inhibition ([2]; .5 mg/kg): 100%

CC[C@]1(O)C[C@@H]2CN(CCc3c([nH]c4ccccc34)[C@@](C(=O)OC)(c3cc4c(cc3OC)N(C)[C@H]3[C@@](O)(C(N)=O)[C@H](O)[C@]5(CC)C=CCN6CC[C@]43[C@@H]65)C2)C1 [vindesine, 4-desacetyl VLB 3-carboxamide]
effectiveness in treating leukemias and neoplasms [5]: effective in treating some vincristine-resistant leukemias in addition to many common neoplasms including germ-cell tumors
